Values quoted from earlier work in paper PMC5766630, “Non-estrogenic Xanthohumol Derivatives Mitigate Insulin Resistance and Cognitive Impairment in High-Fat Diet-induced Obese Mice” (Scientific Reports, 2018).

Key:
mice = details: cited from earlier work
quinone reductase = test system: quinone reductase; parameters: method as in PMID 10737704; details: cited from earlier work

## COc1cc(O)c(CC=C(C)C)c(O)c1C(=O)/C=C/c1ccc(O)cc1 [XN, 3′-[3,3-dimethylallyl]-2′,4′,4-trihydroxy-6′-methoxychalcone]
mice
  Dose with no detectable toxicity: at least 1,000 mg/kg
Quinone reductase
  Induction of quinone reductase: potent inducer
